Results taken from PubChem BioAssay AID1963426 (Molecular Pharmacology Branch, DTP, NCI, 2024).
Values joined by “and” are separate entries in the source; they are usually repeats but may differ in a detail not shown here. Equal values may be shown once. One block for each molecule: values may come before it.

Tested on: 186277-243-T-J2-PDC complex spheroid growth, % test/control
Assay: Anticancer human tumor 186277-243-T-J2-PDC patient-derived colon adenocarcinoma cell line growth inhibition [Asc]
Details: for viability, T/C: stronger effect = lower value
Method in brief: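 Complex solid-tumor spheroids incorporating human endothelial and mesenchymal stem cells received single agents or combinations over half-log dilution ranges anchored to clinical Cmax.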

[1] = curve of first compound, second compound 0.1 µM
[2] = curve of first compound, second compound 0.316 µM
[3] = curve of first compound, second compound 1 µM
[4] = second compound 0.1 µM, first compound 0.00316 µM
[5] = second compound 0.1 µM, first compound 0.01 µM
[6] = second compound 0.1 µM, first compound 0.0316 µM
[7] = second compound 0.1 µM, first compound 0.1 µM
[8] = second compound 0.1 µM, first compound 0.316 µM
[9] = second compound 0.1 µM, first compound 1 µM
[10] = second compound 0.316 µM, first compound 0.00316 µM
[11] = second compound 0.316 µM, first compound 0.01 µM
[12] = second compound 0.316 µM, first compound 0.0316 µM
[13] = second compound 0.316 µM, first compound 0.1 µM
[14] = second compound 0.316 µM, first compound 0.316 µM
[15] = second compound 0.316 µM, first compound 1 µM
[16] = second compound 1 µM, first compound 0.00316 µM
[17] = second compound 1 µM, first compound 0.01 µM
[18] = second compound 1 µM, first compound 0.0316 µM
[19] = second compound 1 µM, first compound 0.1 µM
[20] = second compound 1 µM, first compound 0.316 µM
[21] = second compound 1 µM, first compound 1 µM
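Further: spheroids exposed to agents for 7 days.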
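Wherever viability, T/C is given: 100% = DMSO vehicle control wells.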

IC50 [1]: > 1000 nM
IC50 [2]: > 1000 nM
IC50 [3]: > 1000 nM
IC50 (curve of first compound, second compound 3.16 µM): 788 nM
IC50 (curve of first compound, second compound 10 µM): 738 nM
SMILES: CCN1CCN(Cc2ccc(Nc3ncc(F)c(-c4cc(F)c5nc(C)n(C(C)C)c5c4)n3)nc2)CC1 + Cc1c(S(C)(=O)=O)c(-c2cc(F)cc(N3CCN(c4ccc(NS(=O)(=O)c5ccc(NC(CCN6CCC(C(=O)OCCCP(=O)(O)O)CC6)CSc6ccccc6)c(S(=O)(=O)C(F)(F)F)c5)cc4)CC3)c2)c(-c2ccc(Cl)cc2)n1C(C)C
viability, T/C [4]: 107%
viability, T/C [5]: 99.1%
viability, T/C [6]: 103%
viability, T/C [7]: 125%
viability, T/C [8]: 123%
viability, T/C [9]: 75.3%
viability, T/C [10]: 95.2%
viability, T/C [11]: 94.1%
viability, T/C [12]: 103%
viability, T/C [13]: 115%
viability, T/C [14]: 114%
viability, T/C [15]: 67.7%
viability, T/C [16]: 86.6%
viability, T/C [17]: 99.6%
viability, T/C [18]: 102%
viability, T/C [19]: 120%
viability, T/C [20]: 101%
viability, T/C [21]: 56.7%
viability, T/C (second compound 3.16 µM, first compound 0.00316 µM): 96.4%
viability, T/C (second compound 3.16 µM, first compound 0.01 µM): 89.8%
viability, T/C (second compound 3.16 µM, first compound 0.0316 µM): 101%
viability, T/C (second compound 3.16 µM, first compound 0.1 µM): 113%
viability, T/C (second compound 3.16 µM, first compound 0.316 µM): 89.8%
viability, T/C (second compound 3.16 µM, first compound 1 µM): 39.6%
viability, T/C (second compound 10 µM, first compound 0.00316 µM): 91.3%
viability, T/C (second compound 10 µM, first compound 0.01 µM): 84.3%
viability, T/C (second compound 10 µM, first compound 0.0316 µM): 100%
viability, T/C (second compound 10 µM, first compound 0.1 µM): 110%
viability, T/C (second compound 10 µM, first compound 0.316 µM): 93.5%
viability, T/C (second compound 10 µM, first compound 1 µM): 34.2%

IC50 (curve of compound): > 100 nM
SMILES: NC1CCC(NC2CC2c2ccccc2)CC1 (configuration not stated)
viability, T/C (compound 0.000316 µM): 104% and 75.7% and 107%
viability, T/C (compound 0.001 µM): 96.8% and 96.6% and 112%
viability, T/C (compound 0.00316 µM): 101% and 79% and 98.9%
viability, T/C (compound 0.01 µM): 96.4% and 84.1% and 93.7%
viability, T/C (compound 0.0316 µM): 83.8% and 77.6% and 108%
viability, T/C (compound 0.1 µM): 79.2% and 72.9% and 88.8%

IC50 (curve of first compound, second compound 0.01 µM): > 1000 nM
IC50 (curve of first compound, second compound 0.0316 µM): > 1000 nM
IC50 [1]: > 1000 nM
IC50 [2]: > 1000 nM
IC50 [3]: > 1000 nM
SMILES: CCN1CCN(Cc2ccc(Nc3ncc(F)c(-c4cc(F)c5nc(C)n(C(C)C)c5c4)n3)nc2)CC1 + CNC(C)C(=O)NC1CN(S(=O)(=O)c2cccc(S(=O)(=O)N3CCC4CCC(C(=O)NC(c5ccccc5)c5ccccc5)N4C(=O)C(NC(=O)C(C)NC)C3)c2)CCC2CCC(C(=O)NC(c3ccccc3)c3ccccc3)N2C1=O
viability, T/C (second compound 0.01 µM, first compound 0.00316 µM): 85.5%
viability, T/C (second compound 0.01 µM, first compound 0.01 µM): 110%
viability, T/C (second compound 0.01 µM, first compound 0.0316 µM): 109%
viability, T/C (second compound 0.01 µM, first compound 0.1 µM): 129%
viability, T/C (second compound 0.01 µM, first compound 0.316 µM): 123%
viability, T/C (second compound 0.01 µM, first compound 1 µM): 114%
viability, T/C (second compound 0.0316 µM, first compound 0.00316 µM): 111%
viability, T/C (second compound 0.0316 µM, first compound 0.01 µM): 90.2%
viability, T/C (second compound 0.0316 µM, first compound 0.0316 µM): 114%
viability, T/C (second compound 0.0316 µM, first compound 0.1 µM): 114%
viability, T/C (second compound 0.0316 µM, first compound 0.316 µM): 143%
viability, T/C (second compound 0.0316 µM, first compound 1 µM): 120%
viability, T/C [4]: 112%
viability, T/C [5]: 120%
viability, T/C [6]: 118%
viability, T/C [7]: 132%
viability, T/C [8]: 143%
viability, T/C [9]: 107%
viability, T/C [10]: 107%
viability, T/C [11]: 108%
viability, T/C [12]: 126%
viability, T/C [13]: 131%
viability, T/C [14]: 134%
viability, T/C [15]: 110%
viability, T/C [16]: 120%
viability, T/C [17]: 113%
viability, T/C [18]: 118%
viability, T/C [19]: 138%
viability, T/C [20]: 148%
viability, T/C [21]: 120%
